# Laboratory results reported in the NIST ThermoML archive (doi:10.1016/j.fluid.2007.01.021).
# ± gives the expanded uncertainty stated by the source.
# How the values were obtained:
# [1] = refractive index (Na D-line) (dimensionless); conditions: 293.15 K; 101.33 kPa; Liquid; Standard Abbe refractometry
# [2] = 293.15 K; 101.33 kPa; Liquid
Structure (SMILES),refractive index [1],mass density [2]
OC1CCCCC1 [cyclohexanol],1.4639 ± 0.0006,962.3 ± 0.6 kg/m3
CC(=O)OC1CCCCC1 [cyclohexyl ethanoate],1.4422 ± 0.0006,968.2 ± 0.5 kg/m3
CCCCCOC(C)=O [pentyl ethanoate],1.4026 ± 0.0006,875 ± 0.8 kg/m3
CCCO [propan-1-ol],1.385 ± 0.0006,803.5 ± 1 kg/m3
O [water],1.3326 ± 0.0006,998.4 ± 0.5 kg/m3
